{
  "source": "paper PMC11040653",
  "about": "“Fluorescent carbazole-derived α-amino acids: structural mimics of tryptophan” (Chemical Science, 2024)",
  "key": {"[1]": {"assay": "Fluorescence quantum yield (comparative method, anthracene and L-tryptophan standards) and brightness", "assay_type": "physicochemical", "conditions": "for Φ F (quantum yield): anthracene and L-tryptophan as standards, five concentrations, absorption below 0.1", "experimental": "(§1) Next, the photophysical properties of amino acids 13a–13e were measured.[22,23] As it was important to identify an amino acid that could be used as a probe for different applications, the photophysical properties were assessed in both an organic solvent (methanol) and water (Table 2).\n(§2) 5. Photophysical Data for a-Amino Acids 13a–e\n(§3) Absorption and emission data were recorded using the following instruments:\n(§4) 1. UV-Vis spectra were recorded on a Perkin Elmer Lamda 25 instrument. Fluorescence spectra were recorded on a Shimadzu RF-5301PC spectrofluorophotometer. Emission data were measured using excitation and emission bandpass filters of 3 nm.\n(§5) 2. Both UV-Vis spectra and fluorescence spectra were recorded on a Horiba Duetta Fluorescence and Absorbance spectrometer. Absorbance spectra were recorded with an integration time of 0.05 s, and a band pass of 5 nm. Fluorescence spectra were recorded with and excitation and emission band pass of 5 nm, an integration time of 2 s, and with detector accumulations set to 1.\nQuantum yields were determined using a comparative method against two standards. Anthracene (Φ = 0.27, in ethanol) and ʟ-tryptophan (Φ = 0.14 in water) were used as standard references.9 The integrated fluorescence intensity of each compound was determined from the emission spectra given.\nMeasurements were performed at five different concentrations. Concentrations were chosen to ensure the absorption value was below 0.1 to avoid re-absorption effects. Integrated fluorescence intensity was plotted as a function of the measured absorbance and a linear fit was calculated. The resultant gradient was then used to calculate the quantum yield, using the equation below: […]\nSubscript ST signifies the quantities associated with the quantum yield standard. Subscript X signifies the quantities associated with the novel compound. GradX is the determined gradient associated with the novel compound. GradST is the determined gradient associated with quantum yield standard. η is the refractive index of the solvent used in the fluorescence measurements. η = 1.333 for water, 1.361 for ethanol and 1.331 for methanol."}, "[2]": {"assay": "UV-Vis absorption and fluorescence emission spectra of amino acids 13a–e", "assay_type": "physicochemical", "conditions": "for λ Abs / λ Em / λ Em (second wavelength): 5 μM; for λ Abs: UV-Vis; for λ Em / λ Em (second wavelength): fluorescence", "experimental": "as §1, §2, §3, §4\nas §5, with “1. […]” for “1.”"}, "[3]": {"assay": "Solvatochromism of 13c–13e (emission in various solvents)", "assay_type": "physicochemical", "conditions": "emission in solvents of different polarity", "procedure": "Measurements were performed at five different concentrations. […] Integrated fluorescence intensity was plotted as a function of the measured absorbance and a linear fit was calculated. […]\nSubscript ST signifies the quantities associated with the quantum yield standard. Subscript X signifies the quantities associated with the novel compound. […]"}, "[4]": {"assay": "Circular dichroism spectroscopy of modified TrpZip1 peptide", "assay_type": "physicochemical", "experimental": "Following successful preparation of the carbazole α-amino acids, these were investigated as structural mimics of tryptophan. The effect of substituting amino acid 13e for a tryptophan residue in a well-characterised designed peptide was studied. The beta hairpin TrpZip1 was chosen as a model of beta structure.[21] An Fmoc-derivative of amino acid 13e was prepared under standard conditions and incorporated into the peptide using SPPS protocols. The resulting peptide, 14 (Table 1) was purified by reverse phase HPLC and characterised using high resolution electrospray ionisation mass spectrometry."}, "[5]": {"conditions": "ethanol; standard reference; ref 9 (supplement); cited from earlier work", "experimental": "page 24: 5. Photophysical Data for a-Amino Acids 13a–e Absorption and emission data were recorded using the following instruments: 1. UV-Vis spectra were recorded on a Perkin Elmer Lamda 25 instrument. Fluorescence spectra were recorded on a Shimadzu RF-5301PC spectrofluorophotometer. Emission data were measured using excitation and emission bandpass filters of 3 nm. 2. Both UV-Vis spectra and fluorescence spectra were recorded on a Horiba Duetta Fluorescence and Absorbance spectrometer. Absorbance spectra were recorded with an integration time of 0.05 s, and a band pass of 5 nm. Fluorescence ..."}, "[6]": {"parameters": "method as in PMID 30957824", "conditions": "cited from earlier work", "excerpt": "In combination with fluorescent spectroscopy, α-amino acids have also been used for molecular imaging, providing a method to study and visualise cellular processes in real time.[3] […] Furthermore, their occurrence at multiple sites within a protein can complicate spectroscopic analysis. To overcome these issues, many studies utilise extrinsic fluorescent labels.[4] However, these are typically large chromo ..."}},
  "note": "No end group written: not given here. 13e = not defined here",
  "data": [
    {"molecule": "Cl.N[C@@H](Cc1ccc2[nH]c3ccc4ccccc4c3c2c1)C(=O)O", "note": "[amino acid 13c, (2S)-2-Amino-3-(7H-benzo[c]carbazol-10-yl)propanoic acid hydrochloride]", "values": [
      {"measurement": "Brightness", "setting": "[1]; MeOH", "result": "12 240 cm^−1 M^−1"},
      {"measurement": "Φ F (quantum yield)", "setting": "[1]; MeOH", "result": 0.76},
      {"measurement": "Brightness", "setting": "[1]; Water", "result": 6430, "unit": "cm⁻¹ M⁻¹"},
      {"measurement": "Φ F (quantum yield)", "setting": "[1]; Water", "result": 0.59},
      {"measurement": "ε (molar attenuation coefficient)", "setting": "[2]; MeOH", "result": "16 100 cm^−1 M^−1"},
      {"measurement": "λ Abs", "setting": "[2]; MeOH", "result": 351, "unit": "nm"},
      {"measurement": "λ Em", "setting": "[2]; MeOH", "result": 371, "unit": "nm"},
      {"measurement": "λ Em (second wavelength)", "setting": "[2]; MeOH", "result": 388, "unit": "nm"},
      {"measurement": "ε (molar attenuation coefficient)", "setting": "[2]; Water", "result": "10 900 cm^−1 M^−1"},
      {"measurement": "λ Em", "setting": "[2]; Water", "result": 377, "unit": "nm"},
      {"measurement": "λ Em (second wavelength)", "setting": "[2]; Water", "result": 390, "unit": "nm"},
      {"measurement": "solvatochromism", "setting": "[3]", "result": "minimal solvatochromism"}
    ]},
    {"molecule": "Cl.N[C@@H](Cc1ccc2[nH]c3ccccc3c2c1)C(=O)O", "note": "[amino acid 13a, (2S)-2-Amino-3-(9H-carbazol-3’-yl)propanoic acid hydrochloride]", "values": [
      {"measurement": "Brightness", "setting": "[1]; MeOH", "result": 5120, "unit": "cm⁻¹ M⁻¹"},
      {"measurement": "Φ F (quantum yield)", "setting": "[1]; MeOH", "result": 0.31},
      {"measurement": "Brightness", "setting": "[1]; Water", "result": 2460, "unit": "cm⁻¹ M⁻¹"},
      {"measurement": "Φ F (quantum yield)", "setting": "[1]; Water", "result": 0.28},
      {"measurement": "ε (molar attenuation coefficient)", "setting": "[2]; MeOH", "result": "16 500 cm^−1 M^−1"},
      {"measurement": "λ Abs", "setting": "[2]; MeOH", "result": 342, "unit": "nm"},
      {"measurement": "λ Em", "setting": "[2]; MeOH", "result": 350, "unit": "nm"},
      {"measurement": "λ Em (second wavelength)", "setting": "[2]; MeOH", "result": 366, "unit": "nm"},
      {"measurement": "ε (molar attenuation coefficient)", "setting": "[2]; Water", "result": 8800, "unit": "cm⁻¹ M⁻¹"},
      {"measurement": "λ Abs", "setting": "[2]; Water", "result": 341, "unit": "nm"},
      {"measurement": "λ Em", "setting": "[2]; Water", "result": 352, "unit": "nm"},
      {"measurement": "λ Em (second wavelength)", "setting": "[2]; Water", "result": 366, "unit": "nm"}
    ]},
    {"molecule": "peptide 14: TrpZip1 modified with amino acid 13e (SWTWEGNK-{13e-Thr-Trp-Lys-NH2}; reading uncertain)", "values": [
      {"measurement": "secondary structure", "setting": "[4]; CD, carbazole amino acid 13e replacing tryptophan in TrpZip1", "result": "preserved the original secondary structure"},
      {"measurement": "CD maximum", "setting": "[4]; circular dichroism", "result": 228, "unit": "nm"},
      {"measurement": "CD minimum", "setting": "[4]; circular dichroism", "result": 214, "unit": "nm"},
      {"measurement": "near-UV CD signal", "setting": "[4]; circular dichroism, indicative of ordered aromatic side chains", "result": "280–310 nm"}
    ]},
    {"molecule": "Cl.N[C@@H](Cc1ccc2[nH]c3cc(C(F)(F)F)ccc3c2c1)C(=O)O", "note": "[amino acid 13e, (2S)-2-amino-3-(7-trifluoromethyl-9H-carbazol-3’-yl)propanoic acid hydrochloride]", "values": [
      {"measurement": "Brightness", "setting": "[1]; MeOH", "result": 700, "unit": "cm⁻¹ M⁻¹"},
      {"measurement": "Φ F (quantum yield)", "setting": "[1]; MeOH", "result": 0.06},
      {"measurement": "Brightness", "setting": "[1]; Water", "result": 3360, "unit": "cm⁻¹ M⁻¹"},
      {"measurement": "Φ F (quantum yield)", "setting": "[1]; Water", "result": 0.24},
      {"measurement": "increase in brightness in water", "setting": "[1]; water relative to methanol", "result": "~5", "unit": "fold"},
      {"measurement": "ε and quantum yield in water", "setting": "[1]; water relative to methanol", "result": "enhanced in water"},
      {"measurement": "ε (molar attenuation coefficient)", "setting": "[2]; MeOH", "result": "11 600 cm^−1 M^−1"},
      {"measurement": "λ Em", "setting": "[2]; MeOH", "result": 365, "unit": "nm"},
      {"measurement": "λ Em (second wavelength)", "setting": "[2]; MeOH", "result": 378, "unit": "nm"},
      {"measurement": "ε (molar attenuation coefficient)", "setting": "[2]; Water", "result": "14 000 cm^−1 M^−1"},
      {"measurement": "λ Abs", "setting": "[2]; Water", "result": 348, "unit": "nm"},
      {"measurement": "λ Em", "setting": "[2]; Water", "result": 380, "unit": "nm"},
      {"measurement": "solvatochromism", "setting": "[3]", "result": "minimal solvatochromism"}
    ]},
    {"molecule": "COc1ccc2c(c1)[nH]c1ccc(C[C@H](N)C(=O)O)cc12.Cl", "note": "[amino acid 13b, (2S)-2-Amino-3-(7-methoxy-9H-carbazol-3’-yl)propanoic acid hydrochloride]", "values": [
      {"measurement": "Brightness", "setting": "[1]; MeOH", "result": 4450, "unit": "cm⁻¹ M⁻¹"},
      {"measurement": "Φ F (quantum yield)", "setting": "[1]; MeOH", "result": 0.35},
      {"measurement": "Brightness", "setting": "[1]; Water", "result": 5200, "unit": "cm⁻¹ M⁻¹"},
      {"measurement": "Φ F (quantum yield)", "setting": "[1]; Water", "result": 0.43},
      {"measurement": "ε (molar attenuation coefficient)", "setting": "[2]; MeOH", "result": "12 700 cm^−1 M^−1"},
      {"measurement": "λ Abs", "setting": "[2]; MeOH", "result": 329, "unit": "nm"},
      {"measurement": "λ Em", "setting": "[2]; MeOH", "result": 354, "unit": "nm"},
      {"measurement": "ε (molar attenuation coefficient)", "setting": "[2]; Water", "result": "12 100 cm^−1 M^−1"},
      {"measurement": "λ Abs", "setting": "[2]; Water", "result": 331, "unit": "nm"},
      {"measurement": "λ Em", "setting": "[2]; Water", "result": 357, "unit": "nm"}
    ]},
    {"molecule": "c1ccc2cc3ccccc3cc2c1", "note": "[Anthracene]", "values": [
      {"measurement": "quantum yield of standard", "setting": "[5]", "result": 0.27}
    ]},
    {"molecule": "N#Cc1cccc2[nH]cc(C[C@H](N)C(=O)O)c12", "note": "[compound 3, L-4-cyanotryptophan]", "values": [
      {"measurement": "fluorescence lifetime", "setting": "[6]", "result": "long fluorescence lifetime"}
    ]}
  ]
}
